The text below walks through data of PubChem BioAssay AID2286 (Southern Research Specialized Biocontainment Screening …, 2010).

The source made the active and inactive calls.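 Rule for the calls: active = minimum cell viability of 80% or lower across the dose range, counted as toxic; inactive = minimum cell viability above 80%.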

Test [1] concerns MAGI-CCR5 cells viability, CellTiter-Glo ATP luminescence. Put plainly: viability loss in fusion assay cells – cell-based, MAGI and MAGI-HeLa co-culture, cytotoxicity control for HIV-1 fusion inhibitor project, dose response (AID 2286).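 For minimum viability: 100% = median of DMSO vehicle wells with no ATP signal meaning 0%.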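 For viability: 100% = median of DMSO vehicle wells with no ATP signal meaning 0%.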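 Note: cells exposed to compound for at least 64 h before ATP readout.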
Assay in test [2]: as above
The conditions noted are these: MAGI-CCR5 cells viability, CellTiter-Glo ATP luminescence; for minimum viability: measured here: MAGI minimum viability across doses.

[3] abbreviates: measured here: MAGI + HeLa-R5-16 co-culture viability.
Setting [4] is: MAGI-HeLa co-culture viability, at 50 µM, stronger effect = lower value.

What is called CC50 is the concentration giving 50% cytotoxicity. What is called viability is a read-out of living cells in per cent, often relative to untreated cells. For `O=[N+]([O-])c1cccc(S(=O)(=O)Nc2nc3ccccc3nc2Nc2cccc(S(=O)(=O)N3CCCCC3)c2)c1`, the CC50 in test [1] is 7.22 µM; in test [1] (setting [3]) it was 14.1 µM. For the same compound, the viability in test [2] (setting [4]) was found to be 20.4%. The minimum viability in test [2] (at 50 µM, stronger effect = lower value) is 19.9%.
For `COc1ccc(-c2csc(NC(=O)c3ccccc3NS(=O)(=O)c3ccc(C)cc3)n2)cc1` the same measures were 4.93 µM, 10.9 µM, 24.4% and 20%.
As to `O=C(OCC1OC(n2ncc(=O)[nH]c2=O)C(OC(=O)c2ccccc2)C1OC(=O)c1ccccc1)c1ccccc1` (configuration not stated), the CC50 in test [1] was 42.2 µM. In addition, the viability in test [2] (setting [4]) stood at 111%. Moreover, in test [2] (at 50 µM, stronger effect = lower value), the minimum viability worked out at 44%.
For `O=C(O)c1ccc(Nc2nc(-c3cc4ccccc4oc3=O)cs2)cc1O`, in test [1] (setting [3]), the CC50 is above 50 µM. The viability in test [2] (setting [4]) was 77.6%; in test [2] (at 50 µM (top of the series)), 85.6% (inactive). The same compound yielded a minimum viability in test [2] (at 50 µM, stronger effect = lower value) of 85.6%.
With `CCOC(=O)c1sc2nc3c(SCCC(=O)O)cc(C(=O)c4cc(OC)ccc4O)cn3c(=O)c2c1C`, the CC50 in test [1] (setting [3]) was above 50 µM. In test [2] (setting [4]), the viability worked out at 65.6%. This compound also displayed a minimum viability in test [2] (at 50 µM, stronger effect = lower value) of 68.7%.
In the case of `CSc1nc(SCC(=O)O)c2sc3nc(-c4ccccc4)c4c(c3c2n1)CCC4`, in test [1] (setting [3]), the CC50 is above 50 µM. In addition, the viability in test [2] (setting [4]) was 70.5%; in test [2] (at 25 µM (top of the series)), 99.5% (inactive). In addition, in test [2] (at 1.56 µM, stronger effect = lower value), the minimum viability was 88.2%.
For the compound `COCCN1C(=O)/C(=C/c2ccc(OCc3ccc(C(=O)O)cc3)c(OC)c2)SC1=Nc1ccccc1`, the CC50 is 33.8 µM in test [1] and 35.4 µM in test [1] (setting [3]). Moreover, in test [2] (setting [4]), the viability is 44.3%. The compound further came in with a minimum viability in test [2] (at 50 µM, stronger effect = lower value) of 41.3%.
Turning to `COc1cc(/C=C2\SC(=O)N(Cc3ccc(Cl)cc3)C2=O)cc([N+](=O)[O-])c1O`, the CC50 in test [1] was 20.8 µM; in test [1] (setting [3]), above 50 µM. Also, in test [2] (setting [4]), the viability was determined as 72.8%. The compound also gave a minimum viability in test [2] (at 50 µM, stronger effect = lower value) of 38.6%.
For `O=C(O)c1ccccc1NC(=O)c1ccccc1Nc1ccccc1` the same measures were 42.7 µM, above 50 µM, 58.2% and 47.6%.
The like results for `O=C(O)COc1ccc(/C=C/C(=O)c2ccc(C3CCCCC3)cc2)cc1` were, in that order, 49.7 µM, above 50 µM, 76.3% and 48.7%.
In the case of `CCOc1cc(/C=C2\C(=O)N(c3cccc(C(=O)O)c3)N=C2C(F)(F)F)ccc1OCC(=O)Nc1ccccc1OC`, in test [1] (setting [3]), the CC50 came out at 47.3 µM. The viability in test [2] (setting [4]) is 51.6%; in test [2] (at 25 µM (top of the series)) it was 88.7% (inactive). Besides, in test [2] (at 6.25 µM, stronger effect = lower value), the minimum viability turned out to be 85.3%.
On to `O=[N+]([O-])c1cc(Cl)cc(/C=N/NC(=S)Nc2cc(S(=O)(=O)N3CCOCC3)ccc2Cl)c1O`, for which the CC50 in test [1] is 31.1 µM; in test [1] (setting [3]), above 50 µM. The viability in test [2] (setting [4]) came to 65.7%. For the same compound, the minimum viability in test [2] (at 50 µM, stronger effect = lower value) worked out at 34.7%.
Take `COc1cc(/C=C2/SC(=S)NC2=O)ccc1OS(=O)(=O)c1ccc(C)cc1`: the results for the CC50 in test [1] and in test [1] (setting [3]) were 12 µM and 28.9 µM, respectively. For the same compound, the viability in test [2] (setting [4]) came out at 28.8%. Besides, the minimum viability in test [2] (at 50 µM, stronger effect = lower value) was determined as 21.6%.
As for `COc1cc(/C=C2\C(=N)N3N=C(S(C)(=O)=O)SC3=NC2=O)ccc1OCCOc1ccccc1C`, in test [1] (setting [3]), the half-maximal cytotoxic concentration (CC50) was determined as 10 µM. Moreover, the viability in test [2] (setting [4]) was determined as 15%. In addition, in test [2] (at 50 µM, stronger effect = lower value), the minimum viability worked out at 51.5%.
`O=C(O)CN1C(=O)/C(=C\c2cc(Br)ccc2OCc2ccc(Cl)cc2)SC1=S`: the CC50 in test [1] (setting [3]) amounted to 48.6 µM. Besides, the values for the viability in test [2] (setting [4]) and in test [2] (at 50 µM (top of the series)) were 52.4% and 90.5% (inactive), respectively. This compound showed a minimum viability in test [2] (at 50 µM, stronger effect = lower value) of 90.5%.
`Cc1ccc(C)c(S(=O)(=O)/N=C2\C=C(NS(=O)(=O)c3ccccc3)C(=O)c3ccccc32)c1`: the CC50 was 43.1 µM in test [1] and above 50 µM in test [1] (setting [3]). Moreover, the viability in test [2] (setting [4]) was determined as 52.8%. In test [2] (at 50 µM, stronger effect = lower value), the minimum viability turned out to be 40.6%.
For `C/C(=N\Nc1ccc(C(=O)O)cc1)c1ccc2c(c1)Nc1ccccc1S2` the same measures were 46.2 µM, 26.2 µM, 52.7% and 47.2%.
For `COc1ccc(C(=O)/C=C/c2ccc(-c3ccccc3)cc2)cc1CSCC(=O)O` the same measures were 13 µM, 23.2 µM, 5.69% and 3.11%.
Turning to `O=C(NN1C(=O)/C(=C/c2ccc(O)c([N+](=O)[O-])c2)SC1=S)c1ccccc1Cl`, in test [1] (setting [3]), the CC50 was above 50 µM. In addition, in test [2] (setting [4]), the viability turned out to be 76.4%. Also, the minimum viability in test [2] (at 50 µM, stronger effect = lower value) came out at 67.5%.
